Key:
[1] = Person; daily intake; cited from earlier work
[2] = Dose-response algorithm for vitamin B12 including polygenic risk score effects (Arivale cohort); set-up: species or system human
Experimental: A linear regression was performed for the selected SNPs against vitamin B12 in the Arivale cohort. The Arivale cohort consists of individuals over 18 years of age who between 2015 and 2019 self-enrolled in a now closed scientific wellness company. Briefly, majority of Arivale participants (˜80%) were residents of Washington or California when in the program (for further information on the Arivale cohort see Wilmanski et al. 2021). Methyl-malonic acid (MMA) was measured as a biomarker for blood B12 concentrations. MMA is inversely correlated with vitamin B12 blood levels. The distribution of the PRS was normally distributed and the average increase in MMA per risk allele was 3.4 units (Table 5) corresponding to a decrease of approximately […] vitamin B12 (cobalamin) per risk allele.
To estimate individual vitamin B12 intake needs, a genetic term that sums the effects of all risk alleles present in an individual was added to the dose-response model in the form: […]

| Molecule | UL (tolerable upper intake level) [1] [mg] | intake needed by highest risk score group relative to low risk group to reach the same blood levels ([2]; 14-18 risk alleles vs 0-4 risk alleles) | daily vitamin B12 intake needed for vitamin B12 sufficiency ([2]; sufficiency for 97% of the high risk group) |
| --- | --- | --- | --- |
| [Ca+2] [Calcium] | 2500 |  |  |
| Cl [Chloride] | 3600 |  |  |
| C[N+](C)(C)CCO [Choline] | 3500 |  |  |
| F [Fluoride] | 10 |  |  |
| [Mg+2] [Magnesium] | 350 |  |  |
| [Mn+2] [Manganese] | 11 |  |  |
| O=C(O)c1cccnc1 [Niacin (B3), Niacin] | 35 |  |  |
| [P] [Phosphorus] | 4000 |  |  |
| [Se] [Selenium] | 0.4 |  |  |
| [Na] [Sodium] | 2300 |  |  |
| [Zn] [Zinc] | 40 |  |  |
| Cc1c(C)c2c(c(C)c1O)CC[C@@](C)(CCC[C@H](C)CCC[C@H](C)CCCC(C)C)O2 [α-tocopherol (Vitamin E), α-tocopherol] | 1000 |  |  |
| cobalamin [vitamin B12] |  | five times | higher than 1500 mcg/day |
